Data published in US20260138948A1, “N-SUBSTITUTED INDOLES AS 5-HYDROXYTRYPTAMINE (5-HT) SEROTONIN RECEPTOR AGONISTS AND ANTAGONISTS” (Terran Biosciences Inc., priority 2021, published 2026).

Legend:
[1] = tested on: 5HT2A sensor; settings: general statement on known hallucinogens and non-hallucinogenic congeners; cited from earlier work
[2] = tested on: C57BL/6J mice; experiment: Head-twitch response (HTR) in mice; format: in vivo, mouse; settings: 10 mg/kg ip, male C57BL/6J mice, 40 min post-dose; FIGS. 2 and 3
Method: Head-Twitch Response (HTR). The head-twitch response assay is performed as is known to those of skill in the art using both male and female C57BL/6J mice (3 per treatment). The mice are obtained and are approximately 8 weeks old at the time of the experiments. Compounds are administered via intraperitoneal injection (5 mL/kg) using 0.9% saline as the vehicle. As a positive control, 5-MeO-DMT fumarate (2:1 amine/acid) was utilized. Behavior was videotaped, later scored by two blinded observers, and the results were averaged (Pearson correlation coefficient=0.93).
24 Male C57BL/6J mice (approximately 25 g) were group housed in a stock room. Animals were maintained under a 12 h light/dark cycle, at 23° C. with humidity controlled according to Home Office regulations.
Compounds 1, 2, 4, 151, 93, AAZ literature compound and 5-MeO-DMT (all compounds supplied as free bases) were each formulated in DMSO:saline [10:90] at a concentration of 2 mg/mL to give a dose of 10 mg/kg when administered ip in a 5 mL/kg dosing volume. […]
At T=0 h, groups of 3 mice were dosed intraperitoneally with either Vehicle, Compound 1, Compound 2, Compound 4, Compound 151, Compound 93, AAZ literature compound, or 5-MeO-DMT each at 10 mg/kg. Following dosing, mice were replaced into the observation cages and head twitch behavior was monitored for 40 min after agonist dosing.

For COc1ccc2[nH]cc(CCN(C)C)c2c1 [Compound 5-MeO-DMT], the “activation of the 5HT2A sensor assay in agonist mode” value [1] is listed as “activate the 5HT2A sensor assay in agonist mode” and the “head-twitch response compared to placebo” value [2] is listed as “produced significant increases in head-twitch”.
